Earlier results as cited in patent EP2505189B1, “Stabilizing alkylglycoside compositions and method thereof” (Aegis Therapeutics, LLC, priority 2006, dated 2007).

Tests used:
[1] = in water
[2] = Phase I, 1987-1990
[3] = test system: HIV-related peripheral neuropathy; details: in vivo
isolated nasal cilia = details: in vitro, cilia from 15 human donors

For `CCCCCCCCCCCCCCO[C@@H]1O[C@H](CO)[C@@H](O[C@@H]2O[C@@H](CO)[C@H](O)[C@@H](O)[C@@H]2O)[C@H](O)[C@H]1O` (stereo in doubt) [Tetradecyl maltoside], which CMC [1] is on record?
The CMC was 0.01 mM.

Which CMC [1] does the source give for `CCCCCCCCCCCCCO[C@@H]1O[C@H](CO)[C@@H](OC2OC(CO)C(O)C(O)C2O)[C@H](O)[C@H]1O` (stereo in doubt) [Tridecyl maltoside] here?
Its CMC is 0.03 mM.

With `C[C@@H](N)C(=O)N[C@@H](CO)C(=O)N[C@H](C(=O)N[C@H](C(=O)N[C@H](C(=O)N[C@@H](CC(N)=O)C(=O)N[C@@H](Cc1ccc(O)cc1)C(=O)N[C@H](C(N)=O)[C@@H](C)O)[C@@H](C)O)[C@@H](C)O)[C@@H](C)O` [DAPTA, D-ala^1-Peptide T-amide] as the molecule, how does the toxicity [2] read?
The toxicity was “complete lack of toxicity”.

What about the adverse drug effects [3] of the same molecule?
The adverse drug effects was “No adverse drug effects were noted”.

Which CMC [1] does the source give for `CCCCCCCCCCO[C@@H]1O[C@H](CO)[C@@H](O[C@H]2O[C@H](CO)[C@@H](O)[C@H](O)[C@H]2O)[C@H](O)[C@H]1O` [Decyl maltoside] here?
Its CMC is 1.8 mM.

With `CCCCCCCCCCCCO[C@@H]1O[C@H](CO)[C@@H](O[C@H]2O[C@H](CO)[C@@H](O)[C@H](O)[C@H]2O)[C@H](O)[C@H]1O` [Dodecyl β -D-maltoside] as the molecule, how does the CMC [1] read?
The CMC was 0.17 mM.

With `CCCCCCCCO[C@@H]1O[C@H](CO)[C@@H](O[C@H]2O[C@H](CO)[C@@H](O)[C@H](O)[C@H]2O)[C@H](O)[C@H]1O` [Octyl maltoside] as the molecule, how does the CMC [1] read?
The CMC was 19.5 mM.

Which CMC [1] does the source give for Sucrose dodecanoate here?
The CMC was 0.3 mM.

For benzalkonium chloride [BAC], which nasal irritation (nasal mucosa; 0.02% (Lange 2004)) is on record?
Its nasal irritation is “no discernible negative effects whatsoever”.

What about the “effect on the nasal mucosal function” value (nasal mucosa; 0.02% twice a day, two weeks of continual regular use (McMahon 1997)) of the same molecule?
Its value is “no detectable effect on the nasal mucosal function”.

What about the saccharine transport time (nasal mucosa; in vivo tests (Riechelmann 2004)) of the same molecule?
The saccharine transport time was “did not alter saccharine transport time”.

And the “damage to the nasal mucosa” value (nasal mucosa; prolonged use of topical formulations, 14 in vivo studies (Marple 2004))?
Its value is “no significant damage to the nasal mucosa”.

What about the “effect on isolated nasal cilia” value (isolated nasal cilia) of the same molecule?
Its value is “ciliotoxic”.
